Experimental data as given in publication PMC4057681, “Antenna-Specific Glutathione S-Transferase in Male Silkmoth Bombyx mori” (International Journal of Molecular Sciences, 2014).

System: T1, BmGSTD4
T1 construct: 245 aa precursor; signal peptide (22 aa) and the first two mature residues (Gly, Pro) removed; p28 vector (from pET28a), nickel column, E. coli Rosetta (DE3); about 26 kDa on SDS-PAGE; mature calculated 25,518 Da; by translation of printed primers: precursor begins MLTASVLG, construct begins (M)KKLVAPIK, C-terminus FINKDDE
Test: spectrophotometric GSH conjugation at […] nm, steady-state kinetics
Format: biochemical, Bombyx mori
Conditions: 1 mM GSH, 0.1 M phosphate buffer pH 6.5

With `O=[N+]([O-])c1ccc(Cl)c([N+](=O)[O-])c1` [CDNB, 1-chloro-2,4-dinitrobenzene] the Km was 20 µM.
